# Measurements published in patent publication US7649002B2, “(3,5-dimethylpiperidin-1yl)(4-phenylpyrrolidin-3-yl)methanone derivatives as MCR4 agonists” (Pfizer Inc, priority 2004, dated 2010).
# pEC50: −log10 of the molar value.
# Key:
# [1] = system: spontaneous penile erection in the conscious rat; test: Spontaneous penile erection in the conscious rat (telemetric intracavernosal pressure); type: in vivo; details: for maximum effective dose: s.c.
# Procedure: MCR4 in vivo data for the compound of Example 1 was assessed by selective activation of melanocortin MCR4 receptors using the methodology assessing spontaneous penile erection in the conscious rat.
# Erectile responses were recorded by measuring intracavernosal pressure using a surgically implanted telemetric device (TA11PA-C40, 8 mm catheter, modified 3 mm tip, available from Data Sciences International Inc.). An increase in intracavernosal pressure is indicative of penile erection, as an increase in intracavernosal pressure is an essential hemodynamic event during the initiation and maintenance of penile erection. The specific details of the surgical procedures, data acquisition and analysis used herein to measure increases in intracavernosal pressure can be found in detail in Bernabe J., Rampin O., Sachs B. D., Giuliano F., “Intracavernous pressure during erection in rats: an integrative approach based on telemetric recording”, Am. J. Physiol. 1999 February; 276 (2 Pt 2):R441-9.
# The test animals (rats) (during the dark cycle) were habituated for 18 hours before baseline assessment of erectile function. Prior to administration of the test agent the baseline erectile activity (B) was assessed for the vehicle for 10 minutes using telemetric recording of intracavernosal pressure. Following subcutaneous administration of the compound of Example 1 (in the same vehicle), penile erections were assessed (using telemetric recording of intracavernosal pressure) over 10 minute periods, at intervals of 30, 60, and 90 minutes post dosage.
# [2] = target: T1, human MCR4 receptor (Homo sapiens, UniProt P32245); test: MCR4 standard functional assay (Protocol C): cAMP AlphaScreen in HEK cells; type: cell-based; details: Table 5
# T1 construct: expressed in transfected cells
# T1 sequence (P32245 whole entry): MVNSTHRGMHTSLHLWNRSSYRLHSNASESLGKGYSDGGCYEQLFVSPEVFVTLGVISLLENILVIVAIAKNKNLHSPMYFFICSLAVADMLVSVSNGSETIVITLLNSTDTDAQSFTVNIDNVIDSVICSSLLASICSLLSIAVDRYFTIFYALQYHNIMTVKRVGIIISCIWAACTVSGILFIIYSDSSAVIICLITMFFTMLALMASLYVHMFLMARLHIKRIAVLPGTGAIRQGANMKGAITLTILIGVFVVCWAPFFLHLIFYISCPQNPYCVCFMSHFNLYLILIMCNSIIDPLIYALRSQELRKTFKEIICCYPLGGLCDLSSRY
# Procedure: (§1) Stimulation of adenylate cyclase following receptor activation is a widely used measure of functional activity for a number of receptor systems. The functional assay to measure cyclic AMP (cAMP) utilises human embryonic kidney (HEK) cells that stably express the human melanocortin MCR1, MCR3 or MCR4 receptor. Activation of MCR1, MCR3 or MCR4 receptors stimulates adenylate cyclase, generating cAMP, which is measured using AlphaScreen™ (PerkinElmer assay kits.
# (§2) The AlphaScreen™ cAMP assay kit consists of ‘donor beads’, ‘acceptor beads’, and biotinylated cAMP which links the different beads together. Excitation of this linked complex at […] in the Fusion™-α microplate analyser results in light emission between […].
# (§3) (i) MCR1. MCR3 and MCR4 Standard Functional Assay Methodology [Assay Protocol A, B AND C Respectively]
# (§4) Determination of activity against the human MCR1, MCR3 and MCR4 receptor subtypes was carried out for compounds according to the present invention using three immortalised human embryonic kidney (HEK) cell lines that had been biologically engineered to express the human melanocortin MCR1, MCR3 or MCR4 receptor subtypes. These cell lines were engineered using protocols akin to those outlined by Gouarderes et al (Gouarderes, C., (2002) Neuroscience, 115(2); 349-361).
# (§5) Such-compound-induced activation of these MCR1, MCR3 or MCR4 receptors lead to the stimulation of the cellular enzyme adenylate cyclase, which in turn lead to the cellular generation, and intra-cellular accumulation, of cyclic adenosine monophosphate (cAMP). […] Intracellular levels of cAMP were quantified using the commercially available AlphaScreen™ assay kits from PerkinElmer. A detailed assay protocol and an explanation of the concept underlying this kit is available through the PerkinElmer website (www.perkinelmer.com). The protocol listed below provides a summary this information.
# (§6) The quantity of intracellular cAMP produced by compound-induced activation of the MCR1, MCR3 and MCR4 receptors in these three cell lines was measured using a Fusion™-α microplate analyser set to stimulate at a wavelength of 680 nm and to measure the energy emitted at wave lengths between […]. Compound-induced increases in MCR1, MCR3 or MCR4 receptor activation were subsequently quantified as a decrease in the quantity of light emitted at wavelengths between […]. Data analysis was subsequently performed using a curve-fitting program and the apparent potency of the test compound (expressed as an EC50 and defined as the effective compound concentration that elicited 50% of the maximum compound-induced response) extrapolated from the fitted curve.
# Stimulation buffer (as per AlphaScreen™ protocol): HBSS supplemented with 0.5 mM IBMX, 5 mM HEPES, 0.1% (w/v) BSA and 10 mM MgCl2. […]
# [3] = target: T2, human MCR3 receptor (Homo sapiens, UniProt P41968); test: MCR3 standard functional assay (Protocol B): cAMP AlphaScreen in HEK cells; type: cell-based; details: Table 5
# T2 construct: expressed in transfected cells
# T2 sequence (P41968 whole entry): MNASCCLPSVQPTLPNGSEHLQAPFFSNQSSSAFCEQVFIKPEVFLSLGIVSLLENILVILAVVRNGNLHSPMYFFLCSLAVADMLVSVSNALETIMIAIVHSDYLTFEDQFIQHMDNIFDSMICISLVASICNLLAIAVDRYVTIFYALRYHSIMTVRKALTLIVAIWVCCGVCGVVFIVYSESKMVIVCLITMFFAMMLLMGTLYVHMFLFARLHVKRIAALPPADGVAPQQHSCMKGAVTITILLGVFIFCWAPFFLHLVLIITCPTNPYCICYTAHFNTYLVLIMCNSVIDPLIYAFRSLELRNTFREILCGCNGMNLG
# Procedure: as §1, §2, §3, §4, §5, §6
# Stimulation buffer (as per AlphaScreen™ protocol): HBSS supplemented with 0.5 mM IBMX, 5 mM HEPES, 0.1% (w/v) BSA and 10 mM MgCl2.
# Lysis buffer (as per AlphaScreen™ protocol): 5 mM HEPES solution supplemented with 0.1% (w/v) BSA and 0.3% (v/v) Tween-20.
# Detection mix (as per AlphaScreen™ protocol): Lysis buffer supplemented with the biotinylated cAMP (10 nM) and Donor beads (10 μg/ml) as supplied in the AlphaScreenT cAMP assay kit.
# For the MCR1, MCR3 and MCR4 standard functional assay methodologies compounds were initially dissolved in DMSO to give a compound concentration of 4 mM and then further diluted for the assay in stimulation buffer to give actual concentrations 2-fold greater than that desired as the final assay concentration.
# The three HEK cell lines, as detailed hereinbefore, expressing the human MCR1, MCR3 or MCR4 receptor subtypes were grown in T225 vent cap flasks containing 50 ml of growth medium (DMEM supplemented with 10% (v/v) FCS, 2 mM L-Glutamine, 25 mM HEPES and 1.0 mg/ml Geneticin) and maintained in a cell incubator at a temperature of 37° C. and in an environment containing 5% CO2. Cells were harvested when they reached 80-90% confluency by first removing the existing growth medium and then washing with PBS that had been pre-warmed to a temperature of 37° C. […]
smiles,measurement,setting,value
"C[C@@H]1CN(C(=O)[C@@H]2CN(C(C)(C)C)C[C@H]2c2ccc(F)cc2F)C[C@H](C)[C@@]1(O)c1ccccc1 [Example 1, (3R,4R,5S)-1-{[(3S,4R)-1-tert-Butyl-4-(24-difluorophenyl)pyrrolidin-3-yl]carbonyl}-3,5-dimethyl-4-phenylpiperidin-4-ol]",maximum effective dose,"[1]; additional, more detailed study, FIG. 2, conscious rat",10 µg/kg
same,erectile activity (number of erections over a 10 minute period) versus baseline (treatment vehicle),"[1]; additional, more detailed study, FIG. 2, starting 30 minutes post dosage, 1, 10 and 100 μg/kg s.c.",increases the erectile activity versus baseline erectile activity
same,number of penile erections,"[1]; conscious rat, subcutaneously (s.c.)",dose dependent increase in the number of penile erections
same,maximum effective dose,"[1]; preliminary study, FIG. 1, conscious rat",1 µg/kg
same,erectile activity (number of erections over a 10 minute period) versus baseline,"[1]; preliminary study, FIG. 1, starting 60 minutes post dosage, 1, 10 and 100 μg/kg s.c.",increases the erectile activity versus baseline erectile activity
same,pEC50,[2],7.60
same,Selectivity MCR3/MCR4,[3]; MCR4 by Protocol C,56
same,pEC50,[3]; Protocol B,5.86
